Reference: publication PMC5131915, “Platinum(II) Iodido Complexes of 7-Azaindoles with Significant Antiproliferative Effects: An Old Story Revisited with Unexpected Outcomes” (PLoS ONE, 2016)

Assays:
HOS osteosarcoma cells = assay: In vitro cytotoxicity testing (MTT assay), HOS; format: cell-based, human; conditions: 24 h drug exposure, no recovery, MTT; read-out: IC50±SD, HOS
Experimental: (§1) A2780 ovarian carcinoma, A2780R cisplatin-resistant ovarian carcinoma, HOS osteosarcoma, G361 malignant melanoma, MCF7 breast carcinoma, A549 lung carcinoma, HeLa cervix carcinoma, 22Rv1 prostate carcinoma and Caco-2 colorectal carcinoma human cancer cell lines were purchased from the European Collection of Cell Cultures (ECACC), while the human non-cancerous hepatocytes (Hep) were supplied by Biopredic Intl. The cell lines were cultured, according to the suppliers`instructions, in RPMI-1640 medium supplemented with 10% of fetal calf serum, 1% of 2 mM glutamine, and 1% penicillin/streptomycin. All cell lines were grown as adherent monolayers at 37°C and 5% CO2 in a humidified atmosphere.
(§2) The cells were seeded to 96-well culture plates, pre-incubated in drug-free media at 37°C for 24 h and treated typically with the 0.01–50.0 μM solutions, prepared from the stock solutions by dilution with medium, for 24 h at 37°C. […] In parallel with compounds 1–8 and the reference drugs, the cells were also treated with vehicle (0.1% DMF in medium; negative control) and Triton X-100 (1%; positive control) to assess the minimal and maximal cell damage, respectively. The MTT assay was used to determine the cell viability; MTT = 3-(4,5-dimethylthiazol-2-yl)-2,5-diphenyltetrazolium bromide. A concentration of the formed dye was evaluated spectrophotometrically at 540 nm (TECAN, Schoeller Instruments LLC).
(§3) The data were expressed as the percentage of viability, where 100% and 0% represents the treatments with negative and positive controls, respectively. The data from the cancer cells were acquired from three independent experiments (conducted in triplicate) using cells from different passages. The resulting IC50 values (μM) were calculated from viability curves and the results are presented as arithmetic mean±SD.

[1] = system: G361 malignant melanoma cells; assay: In vitro cytotoxicity testing (MTT assay), G361; format: cell-based, human; conditions: 24 h drug exposure, no recovery, read-out: IC50±SD, G361
Experimental: as §1, §2, §3

[2] = system: MCF7 breast carcinoma cells; assay: In vitro cytotoxicity testing (MTT assay), MCF7; format: cell-based, human; conditions: 24 h drug exposure, no recovery, read-out: IC50±SD, MCF7
Experimental: as §1, §2, §3

[3] = system: A549 lung carcinoma cells; assay: In vitro cytotoxicity testing (MTT assay), A549; format: cell-based, human; conditions: 24 h drug exposure, no recovery, read-out: IC50±SD, A549
Experimental: as §1, §2, §3

[4] = system: HeLa cervix carcinoma cells; assay: In vitro cytotoxicity testing (MTT assay), HeLa; format: cell-based, human; conditions: 24 h drug exposure, no recovery, read-out: IC50±SD, HeLa
Experimental: as §1, §2, §3

[5] = system: 22Rv1 prostate carcinoma cells; assay: In vitro cytotoxicity testing (MTT assay), 22Rv1; format: cell-based, human; conditions: 24 h drug exposure, no recovery, read-out: IC50±SD, 22Rv1
Experimental: as §1, §2, §3

[6] = system: A2780 ovarian carcinoma cells; assay: In vitro cytotoxicity testing (MTT assay), A2780; format: cell-based, human; conditions: 24 h drug exposure, no recovery, MTT; read-out: IC50±SD, A2780
Experimental: (§4) All cell lines were grown as adherent monolayers at 37°C and 5% CO2 in a humidified atmosphere.
(§5) The MTT assay was used to determine the cell viability; MTT = 3-(4,5-dimethylthiazol-2-yl)-2,5-diphenyltetrazolium bromide. A concentration of the formed dye was evaluated spectrophotometrically at 540 nm (TECAN, Schoeller Instruments LLC).
as §3

[7] = system: A2780R cisplatin-resistant ovarian carcinoma cells; assay: In vitro cytotoxicity testing (MTT assay), A2780R; format: cell-based, human; conditions: for resistance factor (RF), IC50(A2780R)/IC50(A2780): 24 h IC50 values; for IC50: 24 h drug exposure, no recovery, MTT, read-out: IC50±SD, A2780R
Experimental: as §4, §5, §3

[8] = system: Caco-2 colorectal carcinoma cells; assay: In vitro cytotoxicity testing (MTT assay), Caco-2; format: cell-based, human; conditions: 24 h drug exposure, no recovery, MTT; read-out: IC50±SD, Caco-2
Experimental: as §4, §5, §3

[9] = system: human non-cancerous hepatocytes (Hep); assay: In vitro cytotoxicity testing (MTT assay), hepatocytes; format: cell-based; conditions: 24 h drug exposure, no recovery
Experimental: as §1, §2, §3

[I][Pt][I].c1cnc2[nH]ccc2c1.c1cnc2[nH]ccc2c1 [Complex 1, cis-[Pt(aza)2I2]]
IC50 (HOS osteosarcoma cells): 0.8 ± 0.4 µM | IC50 [1]: 2.9 ± 0.6 µM | IC50 [2]: 1.7 ± 0.8 µM | IC50 [3]: 12.3 ± 1.1 µM | IC50 [4]: 7 ± 0.6 µM | IC50 [5]: 4.6 ± 1.2 µM | IC50 [6]: 3.5 ± 0.7 µM | resistance factor (RF), IC50(A2780R)/IC50(A2780) [7]: 0.94 | IC50 [7]: 3.3 ± 0.3 µM | IC50 [8]: 3.3 ± 0.2 µM | IC50 [9]: 3.9 µM

Clc1c[nH]c2ncccc12.Clc1c[nH]c2ncccc12.[I][Pt][I] [Complex 2, cis-[Pt(3Claza)2I2]]
IC50 (HOS osteosarcoma cells): 1.3 ± 0.8 µM | IC50 [1]: 2.3 ± 1 µM | IC50 [2]: 1.5 ± 0.4 µM | IC50 [3]: 6.4 ± 1.4 µM | IC50 [4]: 4.8 ± 0.4 µM | IC50 [5]: 4.8 ± 2.4 µM | IC50 [6]: 3.7 ± 0.4 µM | resistance factor (RF), IC50(A2780R)/IC50(A2780) [7]: 0.89 | IC50 [7]: 3.3 ± 0.5 µM | IC50 [8]: 3.1 ± 0.2 µM | IC50 [9]: 5.9 µM

Brc1c[nH]c2ncccc12.Brc1c[nH]c2ncccc12.[I][Pt][I] [Complex 3, cis-[Pt(3Braza)2I2]]
IC50 (HOS osteosarcoma cells): 2.2 ± 1.2 µM | IC50 [1]: 3.1 ± 0.2 µM | IC50 [2]: 1.9 ± 0.5 µM | IC50 [3]: 8.8 ± 2.2 µM | IC50 [4]: 4.7 ± 0.8 µM | IC50 [5]: 4.2 ± 1.2 µM | IC50 [6]: 2.8 ± 0.3 µM | resistance factor (RF), IC50(A2780R)/IC50(A2780) [7]: 1.14 | IC50 [7]: 3.2 ± 0.2 µM | IC50 [8]: 3 ± 0.1 µM | IC50 [9]: 3.9 µM

Brc1cnc2[nH]ccc2c1.Brc1cnc2[nH]ccc2c1.[I-].[I-].[Pt+2] [Complex 7, cis-[Pt(5Braza)2I2]]
IC50 (HOS osteosarcoma cells): 1.4 ± 1.1 µM | IC50 [1]: 3.4 ± 0.3 µM | IC50 [2]: 1.6 ± 0.8 µM | IC50 [3]: 7.3 ± 1.6 µM | IC50 [4]: 5.4 ± 1.2 µM | IC50 [5]: 5.1 ± 0.8 µM | IC50 [6]: 3.4 ± 0.2 µM | resistance factor (RF), IC50(A2780R)/IC50(A2780) [7]: 1.03 | IC50 [7]: 3.5 ± 0.5 µM | IC50 [8]: 3.6 ± 0.2 µM | IC50 [9]: 3.8 µM
